The structures appear in SMILES notation. Where a name gives a salt, the structure may show the parent alone.

For this experiment, the system named is Her2 receptor expression at the surface of SKBr3 cells. The experiment can be described thus: phenotypic SKBr3/HER2 cell test (Her2 surface expression by flow cytometry). The following applies: Homo sapiens, SK-BR-3, 24 h incubation, inhibition of Her2 expression. The experiment is classed as cell-based. On the procedure: The cellular activity of the compounds can in particular be evaluated by means of the phenotypic “SKBr3/HER2” cell test described below:
The SKBr3 […] adenocarcinoma cells, overexpressing the Her2 tyrosine kinase receptor, originate from the ATCC (HTB-30) and are cultured in McCoy's 5A medium supplemented with 10% FBS and 1% L-glutamine.
The cells are seeded in 12-well plates at a proportion of 125 000 cells per well in 1 ml of complete medium. The following day, the products are added at varying concentrations. After incubation for 24 h, the cells are trypsinized, washed with PBS and incubated with 100 ng of anti-Her2 antibody coupled to PE (Phycoerythrin) (BD 340552) for 30 minutes at 4° C. in the dark. The fluorescence due to the expression of the Her2 receptor at the surface of the cells is then read using a FACS Calibur flow cytometer (Becton-Dickinson). The percentage inhibition of Her2 expression as a function of the concentrations of product tested is fitted by the nonlinear regression technique (XLfit, equation 205) in order to measure an IC50 for each product.
In general terms: A flow cytometer gives signals particle by particle.
As usually defined, the IC50 is the midpoint of a concentration-inhibition curve. Higher therefore signals a need for much substance. For `NC(=O)c1ccc(-n2c3ccccc3c3c(-c4nc5ccc(F)cc5[nH]4)cccc32)cc1N[C@H]1CN2CCC1CC2` [Example 98, 2-{(R)-(1-azabicyclo[2.2.2]oct-3-yl)amino}-4-[4-(6-fluoro-1H-benzimidazol-2-yl)-9H-carbazol-9-yl]benzamide], the IC50 was under 1000 nM.

With `NC(=O)c1ccc(-n2c3ccccc3c3c(-c4nc5ccc(F)cc5[nH]4)cccc32)cc1N[C@@H]1CN2CCC1CC2` [Example 99, 2-{(S)-(1-azabicyclo[2.2.2]oct-3-yl)amino}-4-[4-(6-fluoro-1H-benzimidazol-2-yl)-9H-carbazol-9-yl]benzamide], the IC50 is under 1000 nM.

On to `CN1CCC(O)(CNc2cc(-n3c4ccccc4c4c(-c5nc6ccc(F)cc6[nH]5)cccc43)ccc2C(N)=O)CC1` [Example 102, [4-(6-fluoro-1H-benzimidazol-2-yl)-9H-carbazol-9-yl]-2-[(4-hydroxy-1-methylpiperidin-4-ylmethyl)amino]benzamide], for which the IC50 was 1000 to 10000 nM.

Turning to `CN1CCC(O)(CNc2cc(-n3c4ccccc4c4c(-c5cnc6ccccc6c5)cccc43)ccc2C(N)=O)CC1` [Example 103, 2-[(4-hydroxy-1-methylpiperidin-4-ylmethyl)-amino]-[4-(quinolin-3-yl)-9H-carbazol-9-yl]benzamide], the IC50 is under 1000 nM. Turning to `NC(=O)c1ccc(-n2c3ccccc3c3c(-c4nc5ccc(F)cc5[nH]4)cccc32)cc1NCc1cccnc1` [Example 104, 4-[4-(6-fluoro-1H-benzimidazol-2-yl)-9H-carbazol-9-yl]-2-[(pyridin-3-ylmethyl)amino]benzamide], the IC50 was under 1000 nM. Compound `NC(=O)c1ccc(-n2c3ccccc3c3c(-c4cnc5ccccc5c4)cccc32)cc1NCc1cccnc1` [Example 105, 2-[(pyridin-3-ylmethyl)amino]-4-[4-(quinolin-3-yl)-9H-carbazol-9-yl]benzamide] displayed an IC50 of under 1000 nM. The compound `NC(=O)c1ccc(-n2c3ccccc3c3c(-c4nc5ccc(F)cc5[nH]4)cccc32)cc1NCCc1cccnc1` [Example 106, 4-[4-(6-fluoro-1H-benzimidazol-2-yl)-9H-carbazol-9-yl]-2-[2-(pyridin-3-yl)-ethylamino]benzamide] came in with an IC50 of under 1000 nM.

Take `NC(=O)c1ccc(-n2c3ccccc3c3c(-c4cnc5ccccc5c4)cccc32)cc1NCCc1cccnc1` [Example 107, 2-[2-(pyridin-3-yl)ethylamino]-4-[4-(quinolin-3-yl)-9H-carbazol-9-yl]benzamide]: the 50% inhibitory concentration (IC50) is under 1000 nM. As for `NC(=O)c1ccc(-n2c3ccccc3c3c(-c4cnc5ccccc5c4)cccc32)cc1N[C@H]1CN2CCC1CC2` [Example 108, 2-((R)-(1-azabicyclo[2.2.2]oct-3-yl)amino)-4-[4-(quinolin-3-yl)-9H-carbazol-9-yl]benzamide], the figure is under 1000 nM; as for `NC(=O)c1ccc(-n2c3ccccc3c3c(-c4cnc5ccccc5c4)cccc32)cc1NC1CCCC(O)C1` [Example 109, 2-(3(R,S)-hydroxycyclohexyl-1(R,S)-amino)-4-[4-(quinolin-3-yl)-9H-carbazol-9-yl]benzamide], under 1000 nM.

For the compound `Cn1cnc(CNc2cc(-n3c4ccccc4c4c(-c5nc6ccc(F)cc6[nH]5)cccc43)ccc2C(N)=O)c1` [Example 110, 4-[4-(6-fluoro-1H-benzimidazol-2-yl)-9H-carbazol-9-yl]-2-[(1-methyl-1H-imidazol-4-yl)methylamino]benzamide], the IC50 is under 1000 nM.

Compound `NC(=O)c1ccc(-n2c3ccccc3c3c(-c4nc5ccc(F)cc5[nH]4)cccc32)cc1NCC1(O)CCCC1` [Example 111, 4-[4-(6-fluoro-1H-benzimidazol-2-yl)-9H-carbazol-9-yl]-2-[(1-hydroxycyclopentan-1-yl)methylamino]benzamide] yielded a concentration for half-maximal inhibition (IC50) of under 1000 nM. Under `NC(=O)c1ccc(-n2c3ccccc3c3c(-c4cnc5ccccc5c4)cccc32)cc1NC1CCOCC1` [Example 113] stands under 1000 nM; under `NC(=O)c1ccc(-n2c3ccccc3c3c(-c4nc5ccc(F)cc5[nH]4)cccc32)cc1NCC1(O)CC1` [Example 114, 4-[4-(6-fluoro-1H-benzimidazol-2-yl)-9H-carbazol-9-yl]-2-[(1-hydroxycyclopropan-1-yl)methylamino]benzamide], under 1000 nM. As for `Cn1cc(CNc2cc(-n3c4ccccc4c4c(-c5nc6ccc(F)cc6[nH]5)cccc43)ccc2C(N)=O)cn1` [Example 115, 4-[4-(6-fluoro-1H-benzimidazol-2-yl)-9H-carbazol-9-yl]-2-[(1-methyl-1H-pyrazol-4-yl)methylamino]benzamide], the figure is under 1000 nM. As for `NC(=O)c1ncc(-n2c3ccccc3c3c(-c4cnc5ccccc5c4)cccc32)cc1NC1CCOCC1` [Example 116], the figure is under 1000 nM; as for `Cn1cnc(CCNc2cc(-n3c4ccccc4c4c(-c5nc6ccc(F)cc6[nH]5)cccc43)ccc2C(N)=O)c1` [Example 117, 4-[4-(6-fluoro-1H-benzimidazol-2-yl)-9H-carbazol-9-yl]-2-[(1-methyl-1H-imidazol-4-yl)ethylamino]benzamide], under 1000 nM.

Turning to `Cn1cc(CNc2cc(-n3c4ccccc4c4c(-c5cnc6ccccc6c5)cccc43)ccc2C(N)=O)cn1` [Example 119, 2-[(1-methyl-1H-pyrazol-4-yl)methylamino]-4-[4-(quinolin-3-yl)-9H-carbazol-9-yl]benzamide], the IC50 is under 1000 nM. Under `NC(=O)c1ccc(-n2c3ccccc3c3c(-c4cnc5ccccc5c4)cccc32)cc1NCC1(O)CC1` [Example 121, 4-[4-(quinolin-3-yl)-9H-carbazol-9-yl]-2-[(1-hydroxycyclopropan-1-yl)methylamino]benzamide] stands under 1000 nM; under `CN1C(C)(C)CC(Nc2cc(-n3c4ccccc4c4c(-c5cnc6ccccc6c5)cccc43)cnc2C(N)=O)CC1(C)C` [Example 122], under 1000 nM. As for `CC(C)(C)OC(=O)N1CCC(Nc2cc(-n3c4ccccc4c4c(-c5cnc6ccccc6c5)cccc43)ccc2C(N)=O)CC1` [Example 123], the figure is 1000 to 10000 nM; as for `NC(=O)c1ccc(-n2c3ccccc3c3c(-c4cnc5ccccc5c4)cccc32)cc1NC1CCNCC1` [Example 124, 2-(piperidin-4-ylamino)-4-[4-(quinolin-3-yl)-9H-carbazol-9-yl]benzamide hydrochloride], under 1000 nM.

Regarding `CC(C)(O)CCNc1cc(-n2c3ccccc3c3c(-c4ccc(C#N)nc4)cccc32)ccc1C(N)=O` [Example 125, 4-[4-(6-cyanopyridin-3-yl)-9H-carbazol-9-yl]-2-[(3-hydroxy-3-methylbutyl)amino]benzamide], the half-inhibitory concentration (IC50) is under 1000 nM. `CN1C(C)(C)CC(Nc2cc(-n3c4ccccc4c4c(-c5ccc(C#N)nc5)cccc43)ccc2C(N)=O)CC1(C)C` [Example 127, 4-[4-(6-cyanopyridin-3-yl)-9H-carbazol-9-yl]-2-[(1,2,2,6,6-pentamethylpiperidin-4-yl)amino]benzamide]: the IC50 was under 1000 nM. `NCC(=O)O[C@H]1CC[C@H](Nc2cc(-n3c4ccccc4c4c(-c5cnc6ccccc6c5)cccc43)cnc2C(N)=O)CC1` [Example 128, aminoacetic acid 4-trans-{[2-carbamoyl-5-(quinolin-3-yl)-9H-carbazol-9-yl]pyridin-3-ylamino}cyclohexyl ester] yielded a concentration for half-maximal inhibition (IC50) of under 1000 nM. For the compound `NC(=O)c1ncc(-n2c3ccccc3c3c(-c4cnc5ccccc5c4)cccc32)cc1NCCF` [Example 129, 3-(2-fluoroethylamino)-5-[4-(quinolin-3-yl)-9H-carbazol-9-yl]pyridine-2-carboxamide], the IC50 was under 1000 nM.

As for `CC1(C)CC(Nc2cc(-n3c4ccccc4c4c(-c5cnc6ccccc6c5)cccc43)cnc2C(N)=O)CC(C)(C)N1` [Example 132, 5-[4-(quinolin-3-yl)-9H-carbazol-9-yl)-3-(2,2,6,6-tetramethylpiperidin-4-ylamino)pyridine-2-carboxamide], the IC50 fell in the range of 1000 to 10000 nM. As for `NC(=O)c1ncc(-n2c3ccccc3c3c(-c4cnc5ccccc5c4)cccc32)cc1NCCc1ccccn1` [Example 133, 3-[(2-pyridin-2-yl)ethylamino)-5-[4-(quinolin-3-yl)-9H-carbazol-9-yl]pyridine-2-carboxamide], the figure is under 1000 nM; as for `N#Cc1ccc(-c2cccc3c2c2ccccc2n3-c2ccc(C(N)=O)c(NCCF)c2)cn1` [Example 134, 4-[4-(6-cyanopyridin-3-yl)-9H-carbazol-9-yl]-2-[(2-fluoroethyl)amino]benzamide], under 1000 nM. Under `CN1C2CCC1CC(Nc1cc(-n3c4ccccc4c4c(-c5ccc(C#N)nc5)cccc43)ccc1C(N)=O)C2` (stereo not shown) [Example 135, 4-[4-(6-cyanopyridin-3-yl)-9H-carbazol-9-yl]-2-[(8-methyl-8-azabicyclo[3.2.1]oct-3-yl)amino]benzamide] stands under 1000 nM.

For `NC(=O)c1ncc(-n2c3ccccc3c3c(-c4nc5ccc(F)cc5[nH]4)cccc32)cc1NC1CCOCC1` [Example 136], the half-maximal inhibitory concentration (IC50) was under 1000 nM.

On to `NC(=O)c1cnc(-n2c3ccccc3c3c(-c4cnc5ccccc5c4)cccc32)cc1NC1CCOCC1` [Example 137], for which the IC50 was under 1000 nM. As for `CC(C)(O)CNc1cc(-n2c3ccccc3c3c(-c4cnc5ccccc5c4)cccc32)cnc1C(N)=O` [Example 139], the figure is under 1000 nM; as for `CN(C)CC(=O)O[C@H]1CC[C@H](Nc2cc(-n3c4ccccc4c4c(-c5nc6ccc(F)cc6[nH]5)cccc43)ccc2C(N)=O)CC1` [Example 140, dimethylaminoacetic acid 4-trans-{2-carbamoyl-5-[4(6-fluoro-1H-benzimidazol-2-yl)carbazol-9-yl]phenylamino}cyclohexyl ester], under 1000 nM.
